Source: PubChem BioAssay AID1918998 (Molecular Pharmacology Branch, DTP, NCI, 2023)

System: 521955-158-R2-J5-PDC complex spheroid growth
Experiment: Anticancer human tumor 521955-158-R2-J5-PDC patient-derived pancreatic carcinoma cell line growth inhibition [AhR]
Conditions: for IC50: curve of first compound; for viability, T/C: stronger effect = lower value; active means viability on the fitted dose curve at most 10% of control; inactive means the rest
From the text: Multicellular complex tumor spheroid response to aryl hydrocarbon receptor antagonists in combination with a variety of drugs and investigational agents in selected tumor cell lines
The current study was undertaken to assess response to aryl hydrocarbon receptor antagonists in combination with standard-of-care drugs and investigational agents in solid tumor complex spheroid models. Complex spheroids include a stromal component modeled by human endothelial cells (HUVEC) and fibroblasts modeled by human mesenchymal stem cells (MSCs). The concentration ranges selected for each drug and investigational agent were based upon clinically achievable concentrations if the clinical Cmax of the agent was known.
Compounds. The drugs and investigational agents: BAY 2416964 (NSC825713), GNF351 (NSC835774), CH-223191 (NSC835775), CPI-455 (NSC825282), aza-TdCyd (NSC777586), decitabine (NSC127716), belinostat (NSC758774), entinostat (NSC756642), pevonedistat (NSC761192), tazemetostat (NSC777109), talazoparib (NSC765396), olaparib (NSC753686), selinexor (NSC780203), nedisertib (M3814, NSC802822), bortezomib (NSC756655), venetoclax (NSC766270), doxorubicin (NSC123127), elimusertib (BAY189344, NSC800525), ceralasertib (AZD6738, NSC777638), TAK-243 (NSC785004), alisertib (NSC759677), etoposide (NSC141540), topotecan (NSC609699), eribulin (NSC707389), gemcitabine (NSC613327), carboplatin (NSC241240), cisplatin (NSC119875), and SN-38 (NSC673596) were obtained from the National Cancer Institute (NCI) Developmental Therapeutics Program Chemical Repository (32). The FDA-approved anticancer drug set is available from the Developmental Therapeutics Program at https://dtp.cancer.gov/organization/dscb/obtaining/available plates.htm. […] The stock solutions were prepared in dimethyl sulfoxide (DMSO, Sigma-Aldrich, St. Louis, MO, cat. D2650), except for the platinum compounds which were prepared in saline (Quality Biological, Gaithersburg, MD, cat. 114-055-101), at 800-fold the tested concentration and stored at -70 degrees C prior to their use. All drugs and investigational agents were tested over a range starting from a high concentration at or near the clinical Cmax and decreasing in half-log increments. If the clinical Cmax for an agent had not been determined, the highest concentration tested was 10 microM (Table 1).
Cell Culture. All cells were maintained in an incubator at 37 degrees C and 5% CO2 with 95% humidity. The PDC lines were cultured according to standard operating procedures established by the NCI PDMR (https://pdmr.cancer.gov). Briefly, all PDCs were thawed and cultured in Matrigel-coated flasks prepared with a working solution of 1X Ham's F-12 nutrient mix, without supplementation (Invitrogen, Waltham, MA, cat. 11765054), 100 U/mL penicillin-streptomycin (Invitrogen, cat. 15140122), and 2.5% Matrigel (Corning Inc., Corning, NY, cat. 354248) for the first three passages. All PDCs were cultured in complete DMEM/F-12 media containing advanced DMEM/F-12 (Invitrogen, cat. 12634028), 4.9% defined fetal bovine serum, heat inactivated (HyClone Laboratories Inc., Logan, UT, cat. SH30070.03HI), 389 ng/mL hydrocortisone (Sigma-Aldrich, cat. H4001), 9.7 ng/mL human EGF recombinant protein (Invitrogen, cat. PHG0313), 23.4 microg/mL adenine (Sigma-Aldrich, cat. A2786), 97.3 U/mL penicillin-streptomycin (Invitrogen, cat. 15140122), 1.9 mM L-glutamine (Invitrogen, cat. 25030081), and 9.7 microM Y-27632 dihydrochloride (Tocris Bioscience, Bristol, United Kingdom, cat. 1254). The PDCs were cultured in complete DMEM/F12 media without 10 microM Y-27632 dihydrochloride for at least two passages prior to the screen. The established cell lines NCI-H1341 and […] were cultured in DMEM/F-12, HEPES (Invitrogen, cat. 11330032), 5% defined fetal bovine serum (HyClone Laboratories Inc., cat. SH30070.03), ITS premix universal culture supplement [insulin (5 microg/mL), transferrin (5 microg/mL), and selenious acid (5 ng/mL)] […]
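Wherever viability, T/C is given: spheroids mix tumor cells with HUVEC endothelium and human MSC stroma; luminescence taken as viability surrogate after a week of drug exposure.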

CC(C)CC(NC(=O)C(Cc1ccccc1)NC(=O)c1cnccn1)B(O)O (stereo not given) + Cc1cncc(-c2nc(NCCc3c[nH]c4ccccc34)c3ncn(C(C)C)c3n2)c1
0.0167 µM: IC50 (second compound 0.316 µM)
0.0165 µM: IC50 (second compound 0.1 µM)
0.0168 µM: IC50 (second compound 1 µM)
0.00644 µM: IC50 (second compound 10 µM)
0.0151 µM: IC50 (second compound 3.16 µM)
active: viability, T/C (second compound 0.1 µM, first compound 0.03 µM) 4.93% | viability, T/C (second compound 0.1 µM, first compound 0.0949 µM) 0.17% | viability, T/C (second compound 0.1 µM, first compound 0.3 µM) 0.27% | viability, T/C (second compound 0.316 µM, first compound 0.03 µM) 0.39% | viability, T/C (second compound 0.316 µM, first compound 0.0949 µM) 0.25% | viability, T/C (second compound 0.316 µM, first compound 0.3 µM) 0.21% | viability, T/C (second compound 1 µM, first compound 0.03 µM) 1.49% | viability, T/C (second compound 1 µM, first compound 0.0949 µM) 2.14% | viability, T/C (second compound 1 µM, first compound 0.3 µM) 0.89% | viability, T/C (second compound 3.16 µM, first compound 0.03 µM) 0.28% | viability, T/C (second compound 3.16 µM, first compound 0.0949 µM) 2.97% | viability, T/C (second compound 3.16 µM, first compound 0.3 µM) 2.29% | viability, T/C (second compound 10 µM, first compound 0.03 µM) 0.28% | viability, T/C (second compound 10 µM, first compound 0.0949 µM) 2.54% | viability, T/C (second compound 10 µM, first compound 0.3 µM) 0.26%
inactive: viability, T/C (second compound 0.1 µM, first compound 0.000949 µM) 103% | viability, T/C (second compound 0.1 µM, first compound 0.003 µM) 103% | viability, T/C (second compound 0.1 µM, first compound 0.00949 µM) 91.8% | viability, T/C (second compound 0.316 µM, first compound 0.000949 µM) 118% | viability, T/C (second compound 0.316 µM, first compound 0.003 µM) 92.1% | viability, T/C (second compound 0.316 µM, first compound 0.00949 µM) 97.5% | viability, T/C (second compound 1 µM, first compound 0.000949 µM) 107% | viability, T/C (second compound 1 µM, first compound 0.003 µM) 128% | viability, T/C (second compound 1 µM, first compound 0.00949 µM) 98.2% | viability, T/C (second compound 3.16 µM, first compound 0.000949 µM) 141% | viability, T/C (second compound 3.16 µM, first compound 0.003 µM) 127% | viability, T/C (second compound 3.16 µM, first compound 0.00949 µM) 81.7% | viability, T/C (second compound 10 µM, first compound 0.000949 µM) 144% | viability, T/C (second compound 10 µM, first compound 0.003 µM) 126% | viability, T/C (second compound 10 µM, first compound 0.00949 µM) 11.6%

O=C(c1cc(Cc2n[nH]c(=O)c3ccccc23)ccc1F)N1CCN(C(=O)C2CC2)CC1 + Cc1cncc(-c2nc(NCCc3c[nH]c4ccccc34)c3ncn(C(C)C)c3n2)c1
inactive: viability, T/C (second compound 0.1 µM, first compound 0.0316 µM) 106% | viability, T/C (second compound 0.1 µM, first compound 0.1 µM) 97.8% | viability, T/C (second compound 0.1 µM, first compound 0.316 µM) 113% | viability, T/C (second compound 0.1 µM, first compound 1 µM) 106% | viability, T/C (second compound 0.1 µM, first compound 3.16 µM) 98% | viability, T/C (second compound 0.1 µM, first compound 10 µM) 92.4% | viability, T/C (second compound 0.316 µM, first compound 0.0316 µM) 101% | viability, T/C (second compound 0.316 µM, first compound 0.1 µM) 114% | viability, T/C (second compound 0.316 µM, first compound 0.316 µM) 109% | viability, T/C (second compound 0.316 µM, first compound 1 µM) 102% | viability, T/C (second compound 0.316 µM, first compound 3.16 µM) 86.9% | viability, T/C (second compound 0.316 µM, first compound 10 µM) 99.5% | viability, T/C (second compound 1 µM, first compound 0.0316 µM) 119% | viability, T/C (second compound 1 µM, first compound 0.1 µM) 116% | viability, T/C (second compound 1 µM, first compound 0.316 µM) 115% | viability, T/C (second compound 1 µM, first compound 1 µM) 99.4% | viability, T/C (second compound 1 µM, first compound 3.16 µM) 104% | viability, T/C (second compound 1 µM, first compound 10 µM) 89.2% | viability, T/C (second compound 3.16 µM, first compound 0.0316 µM) 142% | viability, T/C (second compound 3.16 µM, first compound 0.1 µM) 133% | viability, T/C (second compound 3.16 µM, first compound 0.316 µM) 121% | viability, T/C (second compound 3.16 µM, first compound 1 µM) 135% | viability, T/C (second compound 3.16 µM, first compound 3.16 µM) 115% | viability, T/C (second compound 3.16 µM, first compound 10 µM) 126% | viability, T/C (second compound 10 µM, first compound 0.0316 µM) 139% | viability, T/C (second compound 10 µM, first compound 0.1 µM) 156% | viability, T/C (second compound 10 µM, first compound 0.316 µM) 167% | viability, T/C (second compound 10 µM, first compound 1 µM) 117% | viability, T/C (second compound 10 µM, first compound 3.16 µM) 114% | viability, T/C (second compound 10 µM, first compound 10 µM) 123%
> 10 µM: IC50 (second compound 0.1 µM) | IC50 (second compound 0.316 µM) | IC50 (second compound 1 µM) | IC50 (second compound 3.16 µM) | IC50 (second compound 10 µM)
